The values below come from patent publication US6423749B1, “Pharmaceutical composition for injection based on paracetamol” (Aziende Chimiche Riunite Angelini Francesco A.C.R.A.F. …, priority 1998, dated 2002).

The nature of series [1]: Solubility of paracetamol, HPLC analysis of supernatant after centrifugation. The series is classed as physicochemical. Particulars: stirred 2 hours at room temperature. As to the method:
The PEG400 was added to the paracetamol at room temperature. This mixture was then kept stirring at room temperature for 2 hours.
4 ml of the above-mentioned suspension were centrifuged in an Eppendorf tube at 25° C. for 30 minutes at a speed of 7,000 rpm.
The absolute ethanol was added to the paracetamol at room temperature. This mixture was then kept stirring at room temperature for 2 hours.
4 ml of the above-mentioned suspension were centrifuged in an Eppendorf tube at 4° C. for 40 minutes at a speed of 7,000 rpm.

For series [2] the following is noted: cited from earlier work.

Regarding `CC(=O)Nc1ccc(O)cc1` [paracetamol], the “solubility of the paracetamol” value in series [1] (in PEG-400, centrifuged at 25° C. for 30 minutes) is listed as 18-19%; in series [1] (in absolute ethanol, centrifuged at 4° C. for 40 minutes), 9-10%. The “amount of paracetamol dissolved” value in series [2] (30% propylene glycol, 40% PEG400 and 30% water, 20° C., WO 98/05314) is listed as “about 200 mg/ml”. Besides, the solubility in water result in series [2] (water, The Merck Index, 12th edition) was “very slightly soluble”.
